Measurements as given in patent US10624949B1, “Methods for treating diseases related to the wnt pathway” (priority 2015, dated 2020).
Entries after “also recorded” stand apart in the source; their conditions may differ.

What was measured:
[1] = test system: RVFV MP12-induced β-catenin transcriptional activity; format: cell-based, human
[2] = test system: Wnt3A-induced β-catenin luc reporter expression; format: cell-based, human
[3] = test system: RVFV MP12-GFP; test: microbe, parasite or virus in culture; format: cell-based, Rift Valley fever virus; conditions: for inhibition at 10 µM: Rift Valley fever virus, Hepatocyte, read-out: inhibition of RVFV MP12-GFP infection
[4] = test system: RVFV MP12-GFP; format: cell-based, Rift Valley fever virus
[5] = test system: VSV; format: cell-based, Vesicular Stomatitis virus
[6] = test system: VacV; format: cell-based, Vaccinia virus
[7] = test system: cellular models of cancer survival; conditions: preclinical studies; cited from earlier work
[8] = test system: LCV; format: cell-based, La Crosse virus
[9] = test system: CEV; format: cell-based, California encephalitis virus
[10] = test system: wild-type RVFV; format: cell-based, Rift Valley fever virus
[11] = test system: RVFV MP12; format: cell-based, Rift Valley fever virus
[12] = test system: VSV; format: cell-based, Vesicular Stomatitis virus; remark: listed apart in the source
[13] = test system: RVFV MP12-GFP; format: cell-based, Rift Valley fever virus; remark: listed apart in the source
[14] = test system: wild-type RVFV strain ZH-501; format: cell-based, Rift Valley fever virus

CO/C1=C\C(C)=C\[C@@H](C)[C@@H](O)[C@@H](C)C/C(C)=C/C=C/[C@H](OC)[C@@H]([C@@H](C)[C@@H](O)[C@H](C)[C@@]2(O)C[C@@H](O)[C@H](C)[C@@H](C(C)C)O2)OC1=O [BAF]
RVFV MP12-induced β-catenin reporter activity [1]: blocked

O=C(Nc1cccc2cccnc12)c1ccc(N2C(=O)[C@@H]3[C@H](C2=O)[C@@H]2C=C[C@H]3C2)cc1 [Endo-IWR-1, 4-[(3aR,4S,7R,7aS)-1,3-dioxo-1,3,3a,4,7,7a-hexahydro-2H-4,7-methanoisoindol-2-yl]-N-(quinolin-8-yl)benzamide]
RVFV MP12-induced β-catenin reporter activity [1]: inhibited
Wnt3A-induced β-catenin luc reporter activity [2]: inhibited
inhibition at 10 µM [3]: > 50%
RVFV MP12-GFP infection, inhibitor 1 hour prior to and during initial infection, removed after 3 hours (pre-treat) [4]: little to no effect
RVFV MP12-GFP infection, inhibitor added 1 hpi (post-treat) [4]: significantly inhibit

Cc1cc([N+](=O)[O-])ccc1NS(=O)(=O)c1cc(Cl)ccc1Cl [FH535, 2,5-dichloro-N-(2-methyl-4-nitrophenyl)benzenesulfonamide]
RVFV MP12-induced β-catenin reporter activity [1]: inhibited
infection of VSV (relative percent infection) [5]: did not diminish
Wnt3A-induced β-catenin luc reporter activity [2]: inhibited
infection of RVFV MP12-GFP (relative percent infection) [3]: reduced
RVFV MP12-GFP infection, inhibitor 1 hour prior to and during initial infection, removed after 3 hours (pre-treat) [4]: little to no effect
RVFV MP12-GFP infection, inhibitor added 1 hpi (post-treat) [4]: significantly inhibit
infection of VacV (relative percent infection) [6]: did not diminish

COc1ccc(C2(CNC(=O)c3ccc(NC(=O)c4ccco4)cc3)CCOCC2)cc1 [JW55, N-[4-[[4-(4-methoxyphenyl)oxan-4-yl]methylcarbamoyl]phenyl]furan-2-carboxamide]
efficacy in cellular models of cancer survival [7]: demonstrated efficacy

O=C1Nc2ccccc2C12OCC1(CO2)COC2(OC1)C(=O)Nc1ccccc12 (stereo not drawn) [JW67, trispiro[3H-indole-3,2′-[1,3]dioxane-5′,5″-[1,3]dioxane-2″,3′″-[3H]indole]-2,2′″(1H,1′″H)-dione]
RVFV MP12-induced β-catenin reporter activity [1]: inhibited
infection of VSV (relative percent infection) [5]: none of the inhibitors that stabilized the DC affected
Wnt3A-induced β-catenin luc reporter activity [2]: inhibited
inhibition at 10 µM [3]: > 50%
LCV infection / viral titers by plaque assay [8]: significantly reduced
RVFV MP12-GFP infection, inhibitor 1 hour prior to and during initial infection, removed after 3 hours (pre-treat) [4]: little to no effect
RVFV MP12-GFP infection, inhibitor added 1 hpi (post-treat) [4]: significantly inhibit
CEV infection / viral titers by plaque assay [9]: significantly reduced
wild-type RVFV viral titers by plaque assay [10]: significant decrease; also recorded: significantly reduced
RVFV MP12 viral titers by plaque assay [11]: significant decrease
infection of VacV (relative percent infection) [6]: none of the inhibitors that stabilized the DC affected

CN(C)c1ccc(/C=C/c2c(F)cccc2F)cc1 [Wnt XII, (E)-4-(2,6-difluorostyryl)-N,N-dimethylaniline]
RVFV MP12-induced β-catenin reporter activity [1]: inhibited
infection of VSV (relative percent infection) [5]: did not diminish
Wnt3A-induced β-catenin luc reporter activity [2]: inhibited
infection of RVFV MP12-GFP (relative percent infection) [3]: reduced
RVFV MP12-GFP infection, inhibitor 1 hour prior to and during initial infection, removed after 3 hours (pre-treat) [4]: little to no effect
RVFV MP12-GFP infection, inhibitor added 1 hpi (post-treat) [4]: significantly inhibit
infection of VacV (relative percent infection) [6]: did not diminish

O=c1nc(-c2ccc(C(F)(F)F)cc2)[nH]c2c1CSCC2 [XAV939, 2-[4-(trifluoromethyl)phenyl]-1,5,7,8-tetrahydrothiopyrano[4,3-d]pyrimidin-4-one]
efficacy in cellular models of cancer survival [7]: demonstrated efficacy

Cc1cc(/C=C2\SC(=O)N(c3ccccc3)C2=O)c(C)n1-c1cccnc1 [iCRT-14, (5Z)-5-[(2,5-dimethyl-1-pyridin-3-ylpyrrol-3-yl)methylidene]-3-phenyl-1,3-thiazolidine-2,4-dione]
RVFV MP12-induced β-catenin reporter activity [1]: inhibited
infection of VSV (relative percent infection) [5]: did not diminish
Wnt3A-induced β-catenin luc reporter activity [2]: inhibited
infection of RVFV MP12-GFP (relative percent infection) [3]: reduced
RVFV MP12-GFP infection, inhibitor 1 hour prior to and during initial infection, removed after 3 hours (pre-treat) [4]: little to no effect
RVFV MP12-GFP infection, inhibitor added 1 hpi (post-treat) [4]: significantly inhibit
wild-type RVFV viral titers by plaque assay [10]: significant decrease
RVFV MP12 viral titers by plaque assay [11]: significant decrease
infection of VacV (relative percent infection) [6]: did not diminish

WIF-1
RVFV MP12-induced β-catenin reporter activity [1]: no effect
infection of VSV (relative percent infection) [5]: unable to reduce infection
Wnt3A-induced β-catenin luc reporter activity [2]: dose-dependent reduction
infection of RVFV MP12-GFP (relative percent infection) [3]: unable to reduce infection
RVFV MP12-GFP infection, inhibitor 1 hour prior to and during initial infection, removed after 3 hours (pre-treat) [4]: no effect
RVFV MP12-GFP infection, inhibitor added 1 hpi (post-treat) [4]: no effect
infection of VacV (relative percent infection) [6]: unable to reduce infection

B1: Wnt3A (protein, UniProt P56704 19-352, looked up)
Protein Wnt-3a: SYPIWWSLAVGPQYSSLGSQPILCASIPGLVPKQLRFCRNYVEIMPSVAEGIKIGIQECQHQFRGRRWNCTTVHDSLAIFGPVLDKATRESAFVHAIASAGVAFAVTRSCAEGTAAICGCSSRHQGSPGKGWKWGGCSEDIEFGGMVSREFADARENRPDARSAMNRHNNEAGRQAIASHMHLKCKCHGLSGSCEVKTCWWSQPDFRAIGDFLKDKYDSASEMVVEKHRESRGWVETLRPRYTYFKVPTERDLVYYEASPNFCEPNPETGSFGTRDRTCNVSSHGIDGCDLLCCGRGHNARAERRREKCRCVFHWCCYVSCQECTRVYDVHTCK
VSV infection after Wnt3A pre-treatment [12]: remained unchanged
RVFV MP12-GFP viral infection after Wnt3A pre-treatment [13]: significantly enhanced
increase in RVFV MP12-GFP infection [13]: greater than 4.5 fold
wild-type RVFV infection (number of plaques) [14]: enhanced

B2: DKK-1 (protein, UniProt O94907 32-266, looked up)
Dickkopf-related protein 1: TLNSVLNSNAIKNLPPPLGGAAGHPGSAVSAAPGILYPGGNKYQTIDNYQPYPCAEDEECGTDEYCASPTRGGDAGVQICLACRKRRKRCMRHAMCCPGNYCKNGICVSSDQNHFRGEIEETITESFGNDHSTLDGYSRRTTLSSKMYHTKGQEGSVCLRSSDCASGLCCARHFWSKICKPVLKEGQVCTKHRRKGSHGLEIFQRCYCGEGLSCRIQKDHHQASNSSRLHTCQRH
RVFV MP12-induced β-catenin reporter activity [1]: no effect
infection of VSV (relative percent infection) [5]: unable to reduce infection
Wnt3A-induced β-catenin luc reporter activity [2]: dose-dependent reduction
infection of RVFV MP12-GFP (relative percent infection) [3]: unable to reduce infection
RVFV MP12-GFP infection, inhibitor 1 hour prior to and during initial infection, removed after 3 hours (pre-treat) [4]: no effect
RVFV MP12-GFP infection, inhibitor added 1 hpi (post-treat) [4]: no effect
infection of VacV (relative percent infection) [6]: unable to reduce infection
